Toxic doses and inconclusive results are not listed. Rule as the data show it: active = T/C of 150% or more; inactive = T/C below 125%.
Test system: L1210 leukemia ip in BDF1 mice, survival T/C
Test: NCI In Vivo Anticancer Drug Screen. Data for tumor model L1210 Leukemia (intraperitoneal) in B6D2F1 (BDF1) mice
Details: endpoint: mean survival time, higher = longer survival
Method in brief: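 Mice bearing the transplanted tumor received compound or vehicle. Survival of the treated group was divided by that of the vehicle-treated control group to give the ratio.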

[1] = dose: 50.0 mg/kg/injection, schedule: Q01DX001 (ip), vehicle: carboxymethylcellulose (CMC)
[2] = dose: 100.0 mg/kg/injection, schedule: Q01DX001 (ip), vehicle: carboxymethylcellulose (CMC)
[3] = dose: 200.0 mg/kg/injection, schedule: Q01DX001 (ip), vehicle: carboxymethylcellulose (CMC)
[4] = dose: 400.0 mg/kg/injection, schedule: Q01DX001 (ip), vehicle: carboxymethylcellulose (CMC)
[5] = dose: 100.0 mg/kg/injection, schedule: Q01DX001 (ip), vehicle: saline
[6] = dose: 100.0 mg/kg/injection, schedule: Q01DX009 (ip), vehicle: Klucel (hydroxypropylcellulose) (HPC)
[7] = dose: 100.0 mg/kg/injection, schedule: Q04DX003 (ip), vehicle: Klucel (hydroxypropylcellulose) (HPC)
[8] = dose: 200.0 mg/kg/injection, schedule: Q01DX001 (ip), vehicle: saline
[9] = dose: 200.0 mg/kg/injection, schedule: Q01DX009 (ip), vehicle: Klucel (hydroxypropylcellulose) (HPC)
[10] = dose: 200.0 mg/kg/injection, schedule: Q04DX003 (ip), vehicle: Klucel (hydroxypropylcellulose) (HPC)
[11] = dose: 400.0 mg/kg/injection, schedule: Q01DX009 (ip), vehicle: Klucel (hydroxypropylcellulose) (HPC)
[12] = dose: 400.0 mg/kg/injection, schedule: Q04DX003 (ip), vehicle: Klucel (hydroxypropylcellulose) (HPC)
[13] = dose: 100.0 mg/kg/injection, schedule: Q04DX003 (ip), vehicle: saline with Tween-80
[14] = dose: 100.0 mg/kg/injection, schedule: Q01DX009 (ip), vehicle: saline with Tween-80
[15] = dose: 200.0 mg/kg/injection, schedule: Q01DX009 (ip), vehicle: saline with Tween-80
[16] = dose: 400.0 mg/kg/injection, schedule: Q01DX009 (ip), vehicle: saline with Tween-80
[17] = dose: 25.0 mg/kg/injection, schedule: Q01DX009 (ip), vehicle: saline
[18] = dose: 25.0 mg/kg/injection, schedule: Q04DX003 (ip), vehicle: saline
[19] = dose: 50.0 mg/kg/injection, schedule: Q01DX009 (ip), vehicle: saline
[20] = dose: 50.0 mg/kg/injection, schedule: Q04DX003 (ip), vehicle: saline
[21] = dose: 100.0 mg/kg/injection, schedule: Q04DX003 (ip), vehicle: saline

Measured: T/C

O=c1ccc2cc(Cl)ccc2o1
inactive: [1] 98 % of control | [2] 98 % of control | [3] 93 % of control | [4] 98 % of control

Cc1ccc(S(=O)(=O)OC2CC3CCC2C3)cc1 (stereo not given)
inactive: dose: 100.0 mg/kg/injection, schedule: Q01DX009 (ip), vehicle: other 107 % of control | dose: 200.0 mg/kg/injection, schedule: Q01DX009 (ip), vehicle: other 100 % of control | dose: 400.0 mg/kg/injection, schedule: Q01DX009 (ip), vehicle: other 102 % of control

COc1ccc(OC)c([N+](=O)[O-])c1
inactive: [5] 100 % of control | [6] 100 % of control | [7] 93 % of control | [8] 105 % of control | [9] 94 % of control | [10] 95 % of control | dose: 400.0 mg/kg/injection, schedule: Q01DX001 (ip), vehicle: saline 96 % of control | [11] 88 % of control | [12] 93 % of control

C/C(=N\NC(N)=S)C(O)c1ccccc1 (stereo not given)
inactive: dose: 5.0 mg/kg/injection, schedule: Q01DX001 (ip), vehicle: other 105 % of control | dose: 10.0 mg/kg/injection, schedule: Q01DX001 (ip), vehicle: other 100 % of control | dose: 20.0 mg/kg/injection, schedule: Q01DX001 (ip), vehicle: other 105 % of control | dose: 40.0 mg/kg/injection, schedule: Q01DX001 (ip), vehicle: other 100 % of control | dose: 80.0 mg/kg/injection, schedule: Q01DX001 (ip), vehicle: other 105 % of control

COC1OC2COC(c3ccccc3)OC2C(O)C1OC(=S)SSC(=S)OC1C(OC)OC2COC(c3ccccc3)OC2C1O (stereo not given)
inactive: dose: 25.0 mg/kg/injection, schedule: Q04DX002 (ip), vehicle: Klucel (hydroxypropylcellulose) (HPC) 89 % of control | dose: 50.0 mg/kg/injection, schedule: Q04DX002 (ip), vehicle: Klucel (hydroxypropylcellulose) (HPC) 104 % of control | dose: 100.0 mg/kg/injection, schedule: Q04DX002 (ip), vehicle: Klucel (hydroxypropylcellulose) (HPC) 112 % of control

CCCCCCCCP(=O)(CCCCCCCC)CCCCCCCC
inactive: [1] 95 % of control | [2] 95 % of control | [3] 95 % of control | [4] 101 % of control

COc1cc(C(=O)O)ccc1N
inactive: [13] 102 % of control | dose: 200.0 mg/kg/injection, schedule: Q04DX003 (ip), vehicle: saline with Tween-80 104 % of control | dose: 400.0 mg/kg/injection, schedule: Q04DX003 (ip), vehicle: saline with Tween-80 102 % of control

COC(=O)c1cc(C(=O)OC)c(C(=O)OC)cc1C(=O)OC
inactive: [14] 101 % of control | [15] 98 % of control | [16] 98 % of control

CC(=O)C(Cl)C(C)=O.CC(=O)C(Cl)C(C)=O.CO.CO.[Ni]
inactive: dose: 12.0 mg/kg/injection, schedule: Q01DX009 (ip), vehicle: other 91 % of control | dose: 25.0 mg/kg/injection, schedule: Q01DX009 (ip), vehicle: other 93 % of control | [5] 112 % of control | [8] 89 % of control

CN(C)CC/C=C1\c2ccccc2CN(C)c2ccccc21
inactive: dose: 6.25 mg/kg/injection, schedule: Q01DX009 (ip), vehicle: saline with Tween-80 94 % of control | dose: 6.25 mg/kg/injection, schedule: Q01DX009 (ip), vehicle: saline 108 % of control | dose: 12.5 mg/kg/injection, schedule: Q01DX009 (ip), vehicle: saline with Tween-80 104 % of control | dose: 12.5 mg/kg/injection, schedule: Q01DX009 (ip), vehicle: saline 107 % of control | dose: 25.0 mg/kg/injection, schedule: Q01DX009 (ip), vehicle: saline with Tween-80 88 % of control | [17] 94 % of control | dose: 25.0 mg/kg/injection, schedule: Q04DX003 (ip), vehicle: saline with Tween-80 88 % of control | [18] 97 % of control | [19] 94 % of control | dose: 50.0 mg/kg/injection, schedule: Q04DX003 (ip), vehicle: saline with Tween-80 96 % of control | [20] 97 % of control | dose: 100.0 mg/kg/injection, schedule: Q01DX009 (ip), vehicle: saline 105 % of control | [13] 94 % of control | [21] 101 % of control

CCCCCCCCCC(N)C(=O)O (stereo not given)
inactive: dose: 50.0 mg/kg/injection, schedule: Q04DX002 (ip), vehicle: gum acacia 100 % of control | dose: 100.0 mg/kg/injection, schedule: Q04DX002 (ip), vehicle: gum acacia 98 % of control | dose: 200.0 mg/kg/injection, schedule: Q04DX002 (ip), vehicle: gum acacia 100 % of control

O=S1(=O)CC(O)C(Br)C1Br (stereo not given)
inactive: dose: 100.0 mg/kg/injection, schedule: Q01DX001 (ip), vehicle: Klucel (hydroxypropylcellulose) (HPC) 96 % of control | dose: 200.0 mg/kg/injection, schedule: Q01DX001 (ip), vehicle: Klucel (hydroxypropylcellulose) (HPC) 104 % of control | dose: 400.0 mg/kg/injection, schedule: Q01DX001 (ip), vehicle: Klucel (hydroxypropylcellulose) (HPC) 94 % of control

O=c1[nH]c2ccc([As](O)O)cc2[nH]1
inactive: dose: 12.5 mg/kg/injection, schedule: Q01DX009 (ip), vehicle: water 109 % of control | dose: 25.0 mg/kg/injection, schedule: Q01DX009 (ip), vehicle: water 110 % of control | dose: 50.0 mg/kg/injection, schedule: Q01DX001 (ip), vehicle: water 98 % of control | dose: 50.0 mg/kg/injection, schedule: Q01DX009 (ip), vehicle: water 124 % of control | dose: 100.0 mg/kg/injection, schedule: Q01DX001 (ip), vehicle: water 101 % of control | dose: 200.0 mg/kg/injection, schedule: Q01DX001 (ip), vehicle: water 104 % of control | dose: 400.0 mg/kg/injection, schedule: Q01DX001 (ip), vehicle: water 114 % of control

CCOC(=O)/C(C)=N\Nc1ccc(Cl)cc1
inactive: [6] 106 % of control | [7] 102 % of control | [9] 98 % of control | [10] 98 % of control | [11] 98 % of control | [12] 99 % of control

CC1CCC2N(C1)CC1C3(O)CC45OC6(O)C(O)CCC4(C)C6CCC5C3(O)CC(O)C1(O)C2(C)O (stereo not given)
inactive: dose: 75.0 mg/kg/injection, schedule: Q01DX001 (ip), vehicle: saline 104 % of control | dose: 150.0 mg/kg/injection, schedule: Q01DX001 (ip), vehicle: saline 105 % of control

CC(=O)OC1=NC(C)c2c1cc(OC(C)=O)[nH]c2=O (stereo not given)
inactive: dose: 50.0 mg/kg/injection, schedule: Q01DX009 (ip), vehicle: Klucel (hydroxypropylcellulose) (HPC) 102 % of control | [7] 108 % of control | [10] 115 % of control

CC1(c2ccc(Cl)cc2)NC(=O)N(CC(=O)Nc2ccccc2)C1=O (stereo not given)
inactive: dose: 100.0 mg/kg/injection, schedule: Q04DX003 (ip), vehicle: acetone 101 % of control | dose: 200.0 mg/kg/injection, schedule: Q04DX003 (ip), vehicle: acetone 90 % of control | dose: 400.0 mg/kg/injection, schedule: Q04DX003 (ip), vehicle: acetone 93 % of control

CCN(CC)CC(O)c1ccccc1 (stereo not given)
inactive: [17] 100 % of control | [18] 98 % of control | [19] 98 % of control | [20] 93 % of control | [21] 100 % of control

Cc1ccc(NC(=O)Nc2ccccc2C(F)(F)F)cc1NC(=O)Nc1ccccc1C(F)(F)F
inactive: [14] 92 % of control | [15] 90 % of control | [16] 92 % of control

CN(Cc1cnc2nc(N)nc(N)c2n1)c1ccccc1
inactive: dose: 20.0 mg/kg/injection, schedule: Q01DX009 (ip), vehicle: saline with Tween-80 97 % of control | dose: 40.0 mg/kg/injection, schedule: Q01DX009 (ip), vehicle: saline with Tween-80 101 % of control | dose: 80.0 mg/kg/injection, schedule: Q01DX009 (ip), vehicle: saline with Tween-80 98 % of control
